This test has as its system collagen induced arthritis. Description: Rat collagen induced arthritis (CIA) model. Format: in vivo. The protocol: Completed Freund's adjuvant (CFA) and incomplete Freund's adjuvant (IFA) were purchased from Difco. Bovine collagen type II (CII), lipopolysaccharide (LPS), and Enbrel were obtained from Chondrex (Isle d'Abeau, France); Sigma (P4252, L'Isle d'Abeau, France), Whyett (25 mg injectable syringe, France) Acros Organics (Palo Alto, Calif.), respectively. All other reagents used were of reagent grade and all solvents were of analytical grade.
Dark Agouti rats (male, 7-8 weeks old) are obtained from Harlan Laboratories (Maison-Alfort, France). DBA/1J mice (male, 7 weeks old) were obtained from Centre d'Elevage et de Reproduction JANVIER (CERJ) (Laval, France). Rats and mice were kept on a 12 hours light/dark cycle (0700-1900). The temperature was maintained at 22° C., and food and water were provided ad libitum.
One day before the experiment, CII solution (2 mg/mL) was prepared with 0.05 M acetic acid and stored at 4° C. Just before the immunization, equal volumes of adjuvant (IFA) and CII were mixed by a homogenizer in a pre-cooled glass bottle in an ice water bath. Extra adjuvant and prolonged homogenization might be required if an emulsion is not formed.
Rat: 0.2 mL of the emulsion is injected intradermally at the base of the tail of each rat on day 1, a second booster intradermal injection (CII solution at 2 mg/mL in CFA 0.1 mL saline) is performed on day 9. This immunization method is modified from published methods (Sims N A et al., (2004) Targeting osteoclasts with zoledronic acid prevents bone destruction in collagen-induced arthritis, Arthritis Rheum. 50 2338-2346; Jou et al., 2005).
The therapeutic effects of the test compounds were tested in the rat or mouse CIA model. Animals were randomly divided into equal groups and each group contained 10 animals. All rats are immunized on day 1 and boosted on day 9. All mice were immunized on day 1 and boosted on day 21. Therapeutic dosing lasted from day 16 to day 30. The negative control group was treated with vehicle (MC 0.5%) and the positive control group with Enbrel (10 mg/kg, 3× week., s.c.). A compound of interest was typically tested at 3 doses, e.g. 3, 10, 30 mg/kg, p.o.
Arthritis was scored according the method of Khachigian 2006, Lin et al 2007 and Nishida et al. 2004). […]
AUC of clinical score (AUC score): The area under the curve (AUC) from day 1 to day 14 was calculated for each individual rat. The AUC of each animal was divided by the average AUC obtained for the vehicle in the study from which the data on that animal was obtained and multiplied by 100 (i.e. the AUC was expressed as a percentage of the average vehicle AUC per study).
Clinical score increase from day 1 to day 14 (End point score): The clinical score difference for each animal was divided by the average clinical score difference obtained for the vehicle in the study from which the data on that animal was obtained and multiplied by 100 (i.e. the difference was expressed as a percentage of the average clinical score difference for the vehicle per study).
Post-mortem, a Larsen' score was derived for both hind paws of all rats by at least 2 scientists. The average of these scores was calculated to obtain one Larsen' score per rat. […]

Consider `CC1(C)CN(C(=O)c2ccc(-c3cccc4nc(NC(=O)C5CC5)nn34)cc2)C1` [Compound 1, Cyclopropanecarboxylic acid{5-[4-(3,3-dimethyl-azetidine-1-carbonyl)-phenyl]-[1,2,4]triazolo[1,5-a]pyridin-2-yl}-amide], for which, where the note is “rat CIA”, the “dose from which significant improvement of paw swelling was seen” value is recorded as ≥ 1 mg/kg, the “dose from which significant improvement of the AUC of the clinical score was seen” value is ≥ 10 mg/kg, the “dose from which significant improvement of the Larsen' score was seen” value is reported as ≥ 30 mg/kg and the “dose from which significant improvement of the endpoint clinical score was seen” value is ≥ 1 mg/kg. Moreover, the “efficacy in the rat CIA study” value (rat, 30, 10, 3, and 1 mg/kg) is listed as “efficacious in all readouts”.

Source of the values: US8796457B2, “Compound useful for the treatment of degenerative and inflammatory diseases” (Galapagos NV, priority 2009, dated 2014).
